Test results reported in article PMC13308190, “Endothelial progenitor cell susceptibility to DNA damaging and DDR-modulating compounds determines endothelial differentiation accuracy” (Stem Cell Research & Therapy, 2026).

Columns and labels:
[1] = system: mESC; test: RT-qPCR mRNA expression; type: cell-based, mouse; conditions: for Cdkn1a mRNA / Cdkn2a mRNA / Glb1 mRNA / Il6 mRNA / Il8 mRNA / Tp53 mRNA: Fig 7A; for Brca1 mRNA / Chk1 mRNA / Rad51 mRNA: Fig 5C; for Atp7a mRNA / Atp7b mRNA / Ctr2 mRNA / Mdr1 mRNA / Mrp1 mRNA / Oct2 mRNA: Fig 2D
Protocol: (§1) Total RNA was purified using the RNeasy Mini Kit (Qiagen, Hilden, Germany). Reverse transcriptase (RT) reaction was performed with the HighCapacity cDNA Reverse Transcription Kit (Applied Biosystems, Darmstadt, Germany) using 900–2000 ng of RNA. Quantitative RT-qPCR analysis was performed using following conditions: (1) 95 °C–10 min; (2) 45 amplification cycles with 95 °C–15 s, 55 °C–15 s, and 72 °C–17 s; (3) 95 °C–1 min, 55 °C–1 min, 65 °C–5 s. If not stated otherwise, analyses were performed in technical triplicates using pooled samples from two independent experiments (each performed with biological duplicates) by use of a CFX96 cycler (BioRad) and the SensiMix SYBR Kit (Bioline, London, UK). The primers used for mRNA expression analyses are listed in Supplementary Table 1. To ensure the specificity of the amplification product, melting curves were recorded at the end of the run. mRNA expression levels were normalized to β-Actin and Gapdh. Relative mRNA expression in mESC or corresponding untreated controls was set to 1.0. Only changes in gene expression of ≤ 0.5- and ≥ 2-fold were considered as biologically relevant. Fold-changes in gene expression are summarized in Supplementary Table 2.

[2] = system: EC d6 (endothelial-like cells); test: RT-qPCR mRNA expression; type: cell-based, mouse; conditions: for Cdkn1a mRNA / Cdkn2a mRNA / Glb1 mRNA / Il6 mRNA / Il8 mRNA / Tp53 mRNA: Fig 7C; for Brca1 mRNA / Chk1 mRNA / Rad51 mRNA: Fig 5C; for Cldn5 mRNA / Ocln mRNA / Tjp1 mRNA: Fig 8C; for Atp7a mRNA / Atp7b mRNA / Ctr2 mRNA / Mdr1 mRNA / Mrp1 mRNA / Oct2 mRNA: Fig 2D
Protocol: as §1, with “relevant.” for “relevant. Fold-changes in gene expression are summarized in Supplementary Table 2.”

[3] = mESC + 10 µM 24 h + 24 h post incubation
[4] = mESC + 20 µM 24 h + 24 h post incubation
[5] = EC d6 + 10 µM 24 h + 24 h post incubation
[6] = EC d6 + 20 µM 24 h + 24 h post incubation
[7] = mESC + 0.05 µM 24 h + 24 h post incubation
[8] = mESC + 0.1 µM 24 h + 24 h post incubation
[9] = EC d6 + 0.05 µM 24 h + 24 h post incubation
[10] = EC d6 + 0.1 µM 24 h + 24 h post incubation

## O=c1c2ccccc2nc(/C=C/c2cccnc2)n1Cc1ccccc1 [B02]
[1]; [3]
  Cdkn1a mRNA: 0.89 Fold of untreated control
  Cdkn2a mRNA: 0.97 Fold of untreated control
  Glb1 mRNA: 1.06 Fold of untreated control
  Il6 mRNA: 0.98 Fold of untreated control
  Il8 mRNA: 0.76 Fold of untreated control
  Tp53 mRNA: 1.09 Fold of untreated control
[1]; [4]
  Cdkn1a mRNA: 0.94 Fold of untreated control
  Cdkn2a mRNA: 0.89 Fold of untreated control
  Glb1 mRNA: 1.06 Fold of untreated control
  Il6 mRNA: 1.35 Fold of untreated control
  Il8 mRNA: 0.93 Fold of untreated control
  Tp53 mRNA: 0.98 Fold of untreated control
[1]; mESC + 20 µM 24 h
  Brca1 mRNA: 0.95 Fold of mESC
  Chk1 mRNA: 1.33 Fold of mESC
  Rad51 mRNA: 0.90 Fold of mESC
[1]; mESC + 20 µM 24 h, Fig 6D
  Pgc1a mRNA: 2.40 Fold of untreated control
[2]; [5]
  Cdkn1a mRNA: 1.67 Fold of untreated control
  Cdkn2a mRNA: 0.64 Fold of untreated control
  Glb1 mRNA: 0.88 Fold of untreated control
  Il6 mRNA: 0.85 Fold of untreated control
  Il8 mRNA: 0.52 Fold of untreated control
  Tp53 mRNA: 0.97 Fold of untreated control
[2]; [6]
  Cdkn1a mRNA: 2.28 Fold of untreated control
  Cdkn2a mRNA: 1.15 Fold of untreated control
  Glb1 mRNA: 1.64 Fold of untreated control
  Il6 mRNA: 1.79 Fold of untreated control
  Il8 mRNA: 0.32 Fold of untreated control
  Tp53 mRNA: 1.27 Fold of untreated control
[2]; EC d6 + 20 µM 24 h
  Brca1 mRNA: 0.51 Fold of mESC
  Chk1 mRNA: 1.27 Fold of mESC
  Rad51 mRNA: 0.34 Fold of mESC
  Cldn5 mRNA: 4.85 Fold of EC d4 or d6
  Ocln mRNA: 1.87 Fold of EC d4 or d6
  Tjp1 mRNA: 1.07 Fold of EC d4 or d6
[2]; EC d6 + 20 µM 24 h, Fig 6D
  Pgc1a mRNA: 0.27 Fold of untreated control

## COc1cccc2c1C(=O)c1c(O)c3c(c(O)c1C2=O)C[C@@](O)(C(=O)CO)C[C@@H]3O[C@H]1C[C@H](N)[C@H](O)[C@H](C)O1 [Dox, doxorubicin]
[1]; [7]
  Cdkn1a mRNA: 2.20 Fold of untreated control
  Cdkn2a mRNA: 2.02 Fold of untreated control
  Glb1 mRNA: 1.22 Fold of untreated control
  Il6 mRNA: 2.74 Fold of untreated control
  Il8 mRNA: 1.29 Fold of untreated control
  Tp53 mRNA: 0.86 Fold of untreated control
[1]; mESC + 0.05 µM 24 h
  Atp7a mRNA: 2.50 Fold of control
  Atp7b mRNA: 1.82 Fold of control
  Ctr2 mRNA: 2.95 Fold of control
  Mdr1 mRNA: 4.03 Fold of control
  Mrp1 mRNA: 2.38 Fold of control
  Oct2 mRNA: 5.33 Fold of control
[1]; mESC + 0.05 µM 24 h, Fig 6C
  Gpx1 mRNA: 1.54 Fold of untreated control
  Gpx4 mRNA: 0.62 Fold of untreated control
  Gstm1 mRNA: 2.08 Fold of untreated control
  Hmox1 mRNA: 1.14 Fold of untreated control
  Pgc1a mRNA: 1.78 Fold of untreated control
  Sod1 mRNA: 1.30 Fold of untreated control
  Sod2 mRNA: 1.10 Fold of untreated control
[1]; mESC + 0.05 µM 24 h, Fig 6F
  Gpx4 mRNA: 1.03 Fold of untreated control
  Slc7a11 mRNA: 0.99 Fold of untreated control
[1]; [8]
  Cdkn1a mRNA: 2.09 Fold of untreated control
  Cdkn2a mRNA: 2.49 Fold of untreated control
  Glb1 mRNA: 1.35 Fold of untreated control
  Il6 mRNA: 2.84 Fold of untreated control
  Il8 mRNA: 1.07 Fold of untreated control
  Tp53 mRNA: 0.87 Fold of untreated control
[1]; mESC + 0.1 µM 24 h
  Atp7a mRNA: 3.09 Fold of control
  Atp7b mRNA: 2.42 Fold of control
  Ctr2 mRNA: 4.05 Fold of control
  Mdr1 mRNA: 6.26 Fold of control
  Mrp1 mRNA: 2.51 Fold of control
  Oct2 mRNA: 0.75 Fold of control
  Brca1 mRNA: 1.93 Fold of mESC
  Chk1 mRNA: 0.68 Fold of mESC
  Rad51 mRNA: 1.36 Fold of mESC
[1]; mESC + 0.1 µM 24 h, Fig 6D
  Pgc1a mRNA: 10.69 Fold of untreated control
[1]; mESC + 0.1 µM 24 h, Fig 6F
  Gpx4 mRNA: 1.05 Fold of untreated control
  Slc7a11 mRNA: 1.20 Fold of untreated control
[2]; [9]
  Cdkn1a mRNA: 4.38 Fold of untreated control
  Cdkn2a mRNA: 1.77 Fold of untreated control
  Glb1 mRNA: 1.49 Fold of untreated control
  Il6 mRNA: 1.91 Fold of untreated control
  Il8 mRNA: 1.31 Fold of untreated control
  Tp53 mRNA: 1.15 Fold of untreated control
[2]; EC d6 + 0.05 µM 24 h
  Atp7a mRNA: 1.47 Fold of control
  Atp7b mRNA: 0.99 Fold of control
  Ctr2 mRNA: 1.13 Fold of control
  Mdr1 mRNA: 4.89 Fold of control
  Mrp1 mRNA: 1.23 Fold of control
  Oct2 mRNA: 0.25 Fold of control
[2]; EC d6 + 0.05 µM 24 h, Fig 6C
  Gpx1 mRNA: 1.10 Fold of untreated control
  Gpx4 mRNA: 1.68 Fold of untreated control
  Gstm1 mRNA: 2.52 Fold of untreated control
  Hmox1 mRNA: 2.63 Fold of untreated control
  Pgc1a mRNA: 10.96 Fold of untreated control
  Sod1 mRNA: 2.60 Fold of untreated control
  Sod2 mRNA: 1.17 Fold of untreated control
[2]; EC d6 + 0.05 µM 24 h, Fig 6F
  Slc7a11 mRNA: 0.82 Fold of untreated control
[2]; [10]
  Cdkn1a mRNA: 5.67 Fold of untreated control
  Cdkn2a mRNA: 2.66 Fold of untreated control
  Glb1 mRNA: 1.97 Fold of untreated control
  Il6 mRNA: 3.23 Fold of untreated control
  Il8 mRNA: 1.15 Fold of untreated control
  Tp53 mRNA: 1.09 Fold of untreated control
[2]; EC d6 + 0.1 µM 24 h
  Atp7a mRNA: 1.77 Fold of control
  Atp7b mRNA: 1.11 Fold of control
  Ctr2 mRNA: 1.27 Fold of control
  Mdr1 mRNA: 11.55 Fold of control
  Mrp1 mRNA: 1.40 Fold of control
  Oct2 mRNA: 1.39 Fold of control
  Brca1 mRNA: 0.45 Fold of mESC
  Chk1 mRNA: 0.43 Fold of mESC
  Rad51 mRNA: 0.48 Fold of mESC
  Cldn5 mRNA: 2.50 Fold of EC d4 or d6
  Ocln mRNA: 1.79 Fold of EC d4 or d6
  Tjp1 mRNA: 1.21 Fold of EC d4 or d6
[2]; EC d6 + 0.1 µM 24 h, Fig 6D
  Pgc1a mRNA: 21.56 Fold of untreated control
[2]; EC d6 + 0.1 µM 24 h, Fig 6F
  Gpx4 mRNA: 0.99 Fold of untreated control
  Slc7a11 mRNA: 1.09 Fold of untreated control

## Nc1ccccc1NC(=O)c1ccc(CNC(=O)OCc2cccnc2)cc1 [EST, entinostat]
[1]; [3]
  Cdkn1a mRNA: 2.08 Fold of untreated control
  Cdkn2a mRNA: 5.82 Fold of untreated control
  Glb1 mRNA: 0.47 Fold of untreated control
  Il6 mRNA: 6.25 Fold of untreated control
  Il8 mRNA: 0.83 Fold of untreated control
  Tp53 mRNA: 0.83 Fold of untreated control
[1]; mESC + 20 µM 24 h
  Brca1 mRNA: 0.52 Fold of mESC
  Chk1 mRNA: 0.27 Fold of mESC
  Rad51 mRNA: 0.29 Fold of mESC
[1]; mESC + 20 µM 24 h, Fig 6D
  Pgc1a mRNA: 184.58 Fold of untreated control
[2]; [5]
  Cdkn1a mRNA: 1.91 Fold of untreated control
  Cdkn2a mRNA: 1.85 Fold of untreated control
  Glb1 mRNA: 3.60 Fold of untreated control
  Il6 mRNA: 1.19 Fold of untreated control
  Il8 mRNA: 0.24 Fold of untreated control
  Tp53 mRNA: 0.82 Fold of untreated control
[2]; [6]
  Cdkn1a mRNA: 2.49 Fold of untreated control
  Cdkn2a mRNA: 2.02 Fold of untreated control
  Glb1 mRNA: 5.40 Fold of untreated control
  Il6 mRNA: 2.47 Fold of untreated control
  Il8 mRNA: 0.48 Fold of untreated control
  Tp53 mRNA: 0.96 Fold of untreated control
[2]; EC d6 + 20 µM 24 h
  Brca1 mRNA: 0.19 Fold of mESC
  Chk1 mRNA: 0.44 Fold of mESC
  Rad51 mRNA: 0.11 Fold of mESC
  Cldn5 mRNA: 2.16 Fold of EC d4 or d6
  Ocln mRNA: 1.62 Fold of EC d4 or d6
  Tjp1 mRNA: 1.46 Fold of EC d4 or d6
[2]; EC d6 + 20 µM 24 h, Fig 6D
  Pgc1a mRNA: 5.75 Fold of untreated control
